Reference: patent publication US20150017667A1, “MEANS AND METHODS FOR ASSESSING LIVER DISORDERS” (BASF SE, priority 2012, published 2015)
Marks after values point to notes of the source that are not given here.

Assays:
female rats = assay: 28-day repeated dose oral toxicity study (OECD 407) with GC-MS/LC-MS plasma metabolite profiling, female rats
Description: A group of each 5 male and female rats was dosed once daily with the indicated compounds (see Table 5, below for compounds, applied doses and administeration details) over 28 days.
Each dose group in the studies consisted of five rats per sex. Additional groups of each 5 male and female animals served as controls. Before starting the treatment period, animals, which were 62-64 days old when supplied, were acclimatized to the housing and environmental conditions for 7 days. All animals of the animal population were kept under the same constant temperature (20-24±3° C.) and the same constant humidity (30-70%). The animals of the animal population were fed ad libitum. The food to be used was essentially free of chemical or microbial contaminants. Drinking water was also offered ad libitum. Accordingly, the water was free of chemical and microbial contaminants as laid down in the European Drinking Water Directive 98/83/EG. The illumination period was 12 hours light followed by 12 hours darkness (12 hours light, from 6:00 to 18:00, and 12 hours darkness, from 18:00 to 6:00).
In the morning of day 7, 14, and 28, blood was taken from the retroorbital venous plexus from fasted anaesthetized animals. From each animal, 1 ml of blood was collected with EDTA as anticoagulant. The samples were centrifuged for generation of plasma. All plasma samples were covered with a N2 atmosphere and then stored at −80° C. until analysis.
For mass spectrometry-based metabolite profiling analyses plasma samples were extracted and a polar and a non-polar (lipid) fraction was obtained. For GC-MS analysis, the non-polar fraction was treated with methanol under acidic conditions to yield the fatty acid methyl esters. Both fractions were further derivatised with O-methyl-hydroxyamine hydrochloride and pyridine to convert Oxogroups to O-methyloximes and subsequently with a silylating agent before analysis. In LC-MS analysis, both fractions were reconstituted in appropriate solvent mixtures. HPLC was performed by gradient elution on reversed phase separation columns.
Following comprehensive analytical validation steps, the data for each analyte were normalized against data from pool samples. These samples were run in parallel through the whole process to account for process variability. The significance of treatment group values specific for sex, treatment duration and metabolite was determined by comparing means of the treated groups to the means of the respective untreated control groups using WELCH-test and quantified with treatment ratios versus control and p-values.

male rats = assay: 28-day repeated dose oral toxicity study (OECD 407) with GC-MS/LC-MS plasma metabolite profiling, male rats; type: in vivo, rat; conditions: plasma
Description: Drinking water was also offered ad libitum.
The samples were centrifuged for generation of plasma.

Cc1cccc(C)c1N(Cn1cccn1)C(=O)CCl [Metazachlor, N-(2,6-dimethylphenyl)-N-(pyrazol-1-ylmethyl)chloroacetamid]
3-O-Methylsphingosine (d18:1), ratio versus control (female rats; day 7): 5.2*
5-O-Methylsphingosine (d18:1), ratio versus control (female rats; day 7): 5.11*
14-Methylhexadecanoic acid, ratio versus control (female rats; day 7): 1.18*
Behenic acid (C22:0), ratio versus control (female rats; day 7): 2.8*
Cholesterol, ratio versus control (female rats; day 7): 2.52*
Coenzyme Q9, ratio versus control (female rats; day 7): 2.3*
DAG (C18:1,C18:2), ratio versus control (female rats; day 7): 1.52*
Eicosanoic acid (C20:0), ratio versus control (female rats; day 7): 2.17*
Glucose, ratio versus control (female rats; day 7): 1.4*
Glycerol phosphate, lipid fraction, ratio versus control (female rats; day 7): 2.41*
Glycerol, lipid fraction, ratio versus control (female rats; day 7): 1.89*
Glycerol-3-phosphate, polar fraction, ratio versus control (female rats; day 7): 1.61*
Heptadecanoic acid (C17:0), ratio versus control (female rats; day 7): 1.53*
Linoleic acid (C18:cis[9,12]2), ratio versus control (female rats; day 7): 2.33*
Nervonic acid (C24:cis[15]1), ratio versus control (female rats; day 7): 4.5*
Palmitic acid (C16:0), ratio versus control (female rats; day 7): 1.96*
Phosphatidylcholine (C16:0,C20:5), ratio versus control (female rats; day 7): 1.18*
TAG (C16:0,C18:1,C18:3), ratio versus control (female rats; day 7): 2.84*
TAG (C16:0,C18:2), ratio versus control (female rats; day 7): 2.65*
TAG (C18:1,C18:2), ratio versus control (female rats; day 7): 2.65*
TAG (C18:2,C18:2), ratio versus control (female rats; day 7): 2.42*
TAG (C18:2,C18:3), ratio versus control (female rats; day 7): 2.42*
TAG No 01, ratio versus control (female rats; day 7): 1.87*
TAG No 05, ratio versus control (female rats; day 7): 2.27*
TAG No 07, ratio versus control (female rats; day 7): 1.97
dihomo-gamma-Linolenic acid (C20:cis[8,11,14]3), ratio versus control (female rats; day 7): 2.69*
erythro-Sphingosine, ratio versus control (female rats; day 7): 4.06*
3-O-Methylsphingosine (d18:1), ratio versus control (female rats; day 14): 7.58*
5-O-Methylsphingosine (d18:1), ratio versus control (female rats; day 14): 7.74*
14-Methylhexadecanoic acid, ratio versus control (female rats; day 14): 1.17*
Behenic acid (C22:0), ratio versus control (female rats; day 14): 4.3*
Cholesterol, ratio versus control (female rats; day 14): 2.96*
Coenzyme Q9, ratio versus control (female rats; day 14): 2.09*
DAG (C18:1,C18:2), ratio versus control (female rats; day 14): 1.92*
Eicosanoic acid (C20:0), ratio versus control (female rats; day 14): 3.19*
Glucose, ratio versus control (female rats; day 14): 1.17*
Glycerol phosphate, lipid fraction, ratio versus control (female rats; day 14): 3.43*
Glycerol, lipid fraction, ratio versus control (female rats; day 14): 2.34*
Glycerol-3-phosphate, polar fraction, ratio versus control (female rats; day 14): 1.72*
Heptadecanoic acid (C17:0), ratio versus control (female rats; day 14): 1.98*
Linoleic acid (C18:cis[9,12]2), ratio versus control (female rats; day 14): 3.2*
Nervonic acid (C24:cis[15]1), ratio versus control (female rats; day 14): 5.92*
Palmitic acid (C16:0), ratio versus control (female rats; day 14): 2.83*
Phosphatidylcholine (C16:0,C20:5), ratio versus control (female rats; day 14): 1.46*
TAG (C16:0,C18:1,C18:3), ratio versus control (female rats; day 14): 3.67*
TAG (C16:0,C18:2), ratio versus control (female rats; day 14): 3.69*
TAG (C18:1,C18:2), ratio versus control (female rats; day 14): 2.74*
TAG (C18:2,C18:2), ratio versus control (female rats; day 14): 2.51*
TAG (C18:2,C18:3), ratio versus control (female rats; day 14): 2.89*
TAG No 01, ratio versus control (female rats; day 14): 1.99*
TAG No 05, ratio versus control (female rats; day 14): 4.68*
TAG No 07, ratio versus control (female rats; day 14): 3.87*
dihomo-gamma-Linolenic acid (C20:cis[8,11,14]3), ratio versus control (female rats; day 14): 4.76*
erythro-Sphingosine, ratio versus control (female rats; day 14): 5.79*
3-O-Methylsphingosine (d18:1), ratio versus control (female rats; day 28): 5.44*
5-O-Methylsphingosine (d18:1), ratio versus control (female rats; day 28): 5.42*
14-Methylhexadecanoic acid, ratio versus control (female rats; day 28): 1.19*
Behenic acid (C22:0), ratio versus control (female rats; day 28): 3.4*
Cholesterol, ratio versus control (female rats; day 28): 2.72*
Coenzyme Q9, ratio versus control (female rats; day 28): 1.75*
DAG (C18:1,C18:2), ratio versus control (female rats; day 28): 2.94*
Eicosanoic acid (C20:0), ratio versus control (female rats; day 28): 2.49*
Glucose, ratio versus control (female rats; day 28): 0.99
Glycerol phosphate, lipid fraction, ratio versus control (female rats; day 28): 2.93*
Glycerol, lipid fraction, ratio versus control (female rats; day 28): 3.13*
Glycerol-3-phosphate, polar fraction, ratio versus control (female rats; day 28): 1.55*
Heptadecanoic acid (C17:0), ratio versus control (female rats; day 28): 2.08*
Linoleic acid (C18:cis[9,12]2), ratio versus control (female rats; day 28): 3.43*
Nervonic acid (C24:cis[15]1), ratio versus control (female rats; day 28): 5.03*
Palmitic acid (C16:0), ratio versus control (female rats; day 28): 2.86*
Phosphatidylcholine (C16:0,C20:5), ratio versus control (female rats; day 28): 1.26*
TAG (C16:0,C18:1,C18:3), ratio versus control (female rats; day 28): 5.22*
TAG (C16:0,C18:2), ratio versus control (female rats; day 28): 3.73*
TAG (C18:1,C18:2), ratio versus control (female rats; day 28): 3.09*
TAG (C18:2,C18:2), ratio versus control (female rats; day 28): 4.34*
TAG (C18:2,C18:3), ratio versus control (female rats; day 28): 4.18*
TAG No 01, ratio versus control (female rats; day 28): 3.16*
TAG No 05, ratio versus control (female rats; day 28): 5.27*
TAG No 07, ratio versus control (female rats; day 28): 4.1*
dihomo-gamma-Linolenic acid (C20:cis[8,11,14]3), ratio versus control (female rats; day 28): 4.48*
erythro-Sphingosine, ratio versus control (female rats; day 28): 4.33*
4-Hydroxyphenylpyruvate, ratio versus control (male rats; day 7): 2.23*
Glycerol-3-phosphate, polar fraction, ratio versus control (male rats; day 7): 1.04
Phosphatidylcholine (C16:1,C18:2), ratio versus control (male rats; day 7): 1.29*
Phosphatidylcholine (C18:0,C18:1), ratio versus control (male rats; day 7): 1.56*
Phosphatidylcholine (C18:0,C18:2), ratio versus control (male rats; day 7): 1.4*
Phytosphingosine, ratio versus control (male rats; day 7): 2.08*
Lysophosphatidylcholine (C18:1), ratio versus control (male rats; day 7 (Table 2)): 1.1*
Phosphatidylcholine (C16:0,C20:5), ratio versus control (male rats; day 7 (Table 2)): 1
alpha-Tocopherol, ratio versus control (male rats; day 7 (Table 2)): 1.8*
4-Hydroxyphenylpyruvate, ratio versus control (male rats; day 14): 2.59*
Glycerol-3-phosphate, polar fraction, ratio versus control (male rats; day 14): 1.63*
Phosphatidylcholine (C16:1,C18:2), ratio versus control (male rats; day 14): 2.11*
Phosphatidylcholine (C18:0,C18:1), ratio versus control (male rats; day 14): 2.37*
Phosphatidylcholine (C18:0,C18:2), ratio versus control (male rats; day 14): 1.55*
Phytosphingosine, ratio versus control (male rats; day 14): 2.86*
Lysophosphatidylcholine (C18:1), ratio versus control (male rats; day 14 (Table 2)): 1.49*
Phosphatidylcholine (C16:0,C20:5), ratio versus control (male rats; day 14 (Table 2)): 1.47*
alpha-Tocopherol, ratio versus control (male rats; day 14 (Table 2)): 1.3*
4-Hydroxyphenylpyruvate, ratio versus control (male rats; day 28): 3.26*
Glycerol-3-phosphate, polar fraction, ratio versus control (male rats; day 28): 1.52*
Phosphatidylcholine (C16:1,C18:2), ratio versus control (male rats; day 28): 2.32*
Phosphatidylcholine (C18:0,C18:1), ratio versus control (male rats; day 28): 2.06*
Phosphatidylcholine (C18:0,C18:2), ratio versus control (male rats; day 28): 1.51*
Phytosphingosine, ratio versus control (male rats; day 28): 3.2*
Lysophosphatidylcholine (C18:1), ratio versus control (male rats; day 28 (Table 2)): 1.33*
Phosphatidylcholine (C16:0,C20:5), ratio versus control (male rats; day 28 (Table 2)): 1.67*
alpha-Tocopherol, ratio versus control (male rats; day 28 (Table 2)): 1.49*
